Data set [1] can be described thus: Fatal carbon monoxide intoxication, forensic series (P-181). The note with it: 29 fatal cases, toxicological analysis at autopsy.
Data set [2] concerns carbapenemase-producing Enterobacteriaceae. Put plainly: Antibiotic susceptibility of Enterobacteriaceae with decreased susceptibility to carbapenems. It counts as cell-based.
The subject of data set [3] is Pseudomonas aeruginosa. Description: Disk diffusion susceptibility of P. aeruginosa isolated from burned patients (P-48). The format is cell-based. The note with it: for strains resistant: 485 strains from burned patients 2012-2015, disk diffusion, FSM breakpoints.
The test system of data set [4] is Extended spectrum betalactamase producing Enterobacteriaceae. Put plainly: Antibiotic resistance of ESBL producing Enterobacteriaceae (P-147). The format is cell-based. The note with it: isolates 2015 and 2016.
The subject of data set [5] is Acinetobacter baumanni. Put plainly: Antibiotic resistance of Acinetobacter baumanni (P-147). The format is cell-based. The settings on record: imipenem resistant isolates.
Data set [6] concerns P. aeruginosa. Description: Antibiotic resistance of P. aeruginosa (P-147). It counts as cell-based.
Data set [7] relates to Acinetobacter baumannii. The format is cell-based. The settings on record: blood culture isolates 2012–2016. As for the experimental part: (§1) Patients and methods: From January 2012 to December 2016, a total of 2,182 non repetitive strains were isolated from blood cultures. Incubation of blood culture vials and the detection of bacterial growth were performed by the BACTEC system. All Isolated organisms were identified on the basis of standard microbiological techniques. Antibiotic susceptibility testing was carried out by the agar disk diffusion method, and susceptibility results were interpreted using clinical breakpoints according to CA-SFM 2013 and 2015 guidelines. Data were analyzed using the SIR-system. Minimum inhibitory concentrations of colistin, imipenem and vancomycin were determined using the Etest® method (bioMérieux).

Data set [8] has as its system Pseudomonas aeruginosa (PA). Put plainly: Antibiotic resistance of Pseudomonas aeruginosa before/after antibiotic stewardship (P-214). It counts as cell-based.
Data set [9] deals with Acinetobacter Baumanii. Description: Resistance of nosocomial infection isolates: Acinetobacter Baumanii (P-222). The note with it: n = 39 isolates, 2016. The format is cell-based. The text has this:
(§2) Patients and methods: This was a retrospective study conducted within a 22-bed medical ICU of a Tunisian teaching hospital (301 beds) carried from January 1st to December 31, 2016. We recorded demographic patients’ characteristics which ICU’s stay was complicated with at least one NI. Then we described pathogens and microbiological specificities of NI.

The test system of data set [10] is Pseudomonas. Description: Resistance of VAP isolates: pseudomonas (P-224). It counts as cell-based. The settings on record: 2014-2015. The source says:
(§3) Patients and methods: Retrospective study spread over 2 years from January 2014 to December 2015 carried out in the resuscitation unit of the medical and surgical emergency department of CHUOran. Data utilization with Whonet software. The criteria of vap retained are those of CTINILS (May 2007).

Data set [11] deals with acintobacter baumanii. Put plainly: Resistance of VAP isolates: baumanii (P-224). It counts as cell-based. The note with it: 2014-2015.
Text: as §3

Data set [12] concerns Klebsiella pneumoniae.
In data set [13] the test system is Pseudomonas aeruginosa.
The test system of data set [14] is Pseudomonas. The note with it: January 2010 - June 2014.
The test system of data set [15] is Acinetobacter baumannii. The note with it: January 2010 - June 2014.
For data set [16], the system named is Escherichia-coli. Put plainly: Resistance in nosocomial urinary tract infection: Escherichia-coli (P-219). The note with it: January 2010 - June 2014.
Data set [17] is described as follows: Beta-lactam plasma concentrations in children with severe sepsis or septic shock (HPLC). The note with it: current standard dosing.
Data set [18] deals with Staphylococcus aureus. It counts as cell-based. The settings on record: blood culture isolates 2012–2016. As for the experimental part:
as §1

In data set [19] the test system is coagulase negative Staphylococcus. Put plainly: Resistance of nosocomial infection isolates: coagulase negative Staphylococcus (P-222). It counts as cell-based. The note with it: n = 12 isolates, 2016.
Text: as §2

Data set [20] deals with Staphylococcus aureus. Put plainly: Resistance in nosocomial urinary tract infection: Staphylococcus aureus (P-219). The settings on record: January 2010 - June 2014.
A short description of data set [21]: Piperacillin-tazobactam 16 g day continuous infusion, PK PD target attainment. It counts as in vivo, critically ill patients. The note with it: MIC 16 mg L^−1 for piperacillin, n = 60.
Data set [22] concerns microorganisms of post-operative pneumonia. Description: Susceptibility of microorganisms cultured in severe post-operative pneumonia (P-213). The format is cell-based. The note with it: 66 patients with significant culture. As for the experimental part:
Patients and methods: All patients with severe POP occurring within 30 days after lung resection between January 2013 and December 2015 were included. We collected data on clinical presentation, results of microbiological investigations, antibiotic regimen and outcomes. The quality of antibiotic use was assessed using indicators previously validated in the literature.

Data set [23] has as its system Pseudomonas aeruginosa. Put plainly: Resistance of nosocomial infection isolates: Pseudomonas aeruginosa (P-222). The format is cell-based. The settings on record: n = 14 isolates, 2016.
Text: as §2

Data set [24] can be described thus: New-generation anticonvulsive drug poisoning in ICU with pharmacokinetics (P-146). The format is in vivo, human. The note with it: membrane-stabilizing effects resulting in acute cardiac failure. The text has this:
Pharmacokinetics modeling and parameters were obtained using WinNonlin v.5.1 software.

The mark [25] stands for this setting: period 2011–2014 (P2), after antibiotic stewardship, p < 0.01.

Read-outs that look alike come from different tables or passages of the source.

For `[C-]#[O+]` [carbon monoxide], the “mean HbCO level” value in data set [1] worked out at 51.59%.
For the compound colistin, in data set [2] (colistin excepting with Proteus), the susceptibility was determined as 98%. The compound also came in with a strains susceptible in data set [3] (485 strains from burned patients, disk diffusion) of 100%. Also, the sensitivity result in data set [4], in data set [5] and in data set [6] (Ceftazidim resistant isolates) was “all bacterial stocks were sensitive” throughout.
Take `C[C@@H](O)[C@H]1C(=O)N2C(C(=O)O)=C(SCCN=CN)C[C@H]12` [imipenem]: the “strains with MIC > 8 mg l” value in [2] (39 selected bacteria) amounted to 30%. For the same compound, the resistance rate amounted to 94% in [7], 15% in [12] and 72% in [13]. The strains resistant in data set [3] came to 56%. The rate of resistance in data set [4] is listed as 2.17%. In addition, the “antibiotic resistance of PA” value stood at 38% in data set [8] (period 2007–2010 (P1)) and 18% in [8] (setting [25]). The resistance in data set [9] worked out at 100%. Besides, the resistant in data set [10] is 18.4%; in data set [11] it was 55%; in data set [14], 64%; in [15] it was 87%; in data set [16], 8%. Also, in [17], the “patients with insufficient plasma concentration” value came out at 0%.
In turn, `COc1cccc(OC)c1C(=O)N[C@@H]1C(=O)N2[C@@H]1SC(C)(C)[C@@H]2C(=O)O` [methicillin] gave a resistance rate in [18] of 70%. For the same compound, the resistant in data set [19] is reported as 75%; in data set [20], 25%.
Take piperacillin-tazobactam: the “rate of empirical target non-attainment” value in data set [21] is recorded as 17%. The resistant rate in [2] (CA-SFM 2015) stood at 87%. The “patients whose microorganisms were sensitive” value in [22] came to 86%. Also, the “patients with insufficient plasma concentration” value in data set [17] is listed as 77%.
For the compound `CC(C)(O/N=C(\C(=O)N[C@@H]1C(=O)N2C(C(=O)[O-])=C(C[n+]3ccccc3)CS[C@H]12)c1csc(N)n1)C(=O)O` [ceftazidim], the strains resistant in data set [3] is given as 21%. The resistance in data set [6] (isolates 2015 and 2016) amounted to 10%; in [23], 33.3%. Also, the results for the “antibiotic resistance of PA” value in data set [8] (period 2007–2010 (P1)) and in [8] (setting [25]) were 42% and 11%, respectively.
For `COC[C@@H](NC(C)=O)C(=O)NCc1ccccc1` [lancosamide, lacosamide], the outcome in data set [24] is “died”.
